Our source for the DC50 values is patent US20230322761A1, “DEGRADATION OF BRUTON'S TYROSINE KINASE (BTK) BY CONJUGATION OF BTK INHIBITORS WITH E3 LIGASE LIGAND AND METHODS OF USE” (BEIGENE, LTD., priority 2020, published 2023).

The assay concerns the target T1, BTK (Homo sapiens, UniProt Q06187).
T1 construct: endogenous in cells; host or cells: TMD-8 cells
Nature of the assay: BTK degradation in TMD-8 cells, HTRF assay after 6 h treatment. Type of assay: cell-based. The settings on record: IC50 (DC50) of BTK degradation. The method, boiled down: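 TMD-8 cells treated for 6 h with 8 compound doses in 6-fold dilution steps from a 1 mM 500× DMSO stock (0.2% DMSO), then lysed 30 min at room temperature. BTK in lysate detected by HTRF (665/620 nm) after overnight antibody incubation; DC50 from four-parameter curve fit.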

Some results are limits rather than exact numbers.

T1 sequence (Q06187 whole entry): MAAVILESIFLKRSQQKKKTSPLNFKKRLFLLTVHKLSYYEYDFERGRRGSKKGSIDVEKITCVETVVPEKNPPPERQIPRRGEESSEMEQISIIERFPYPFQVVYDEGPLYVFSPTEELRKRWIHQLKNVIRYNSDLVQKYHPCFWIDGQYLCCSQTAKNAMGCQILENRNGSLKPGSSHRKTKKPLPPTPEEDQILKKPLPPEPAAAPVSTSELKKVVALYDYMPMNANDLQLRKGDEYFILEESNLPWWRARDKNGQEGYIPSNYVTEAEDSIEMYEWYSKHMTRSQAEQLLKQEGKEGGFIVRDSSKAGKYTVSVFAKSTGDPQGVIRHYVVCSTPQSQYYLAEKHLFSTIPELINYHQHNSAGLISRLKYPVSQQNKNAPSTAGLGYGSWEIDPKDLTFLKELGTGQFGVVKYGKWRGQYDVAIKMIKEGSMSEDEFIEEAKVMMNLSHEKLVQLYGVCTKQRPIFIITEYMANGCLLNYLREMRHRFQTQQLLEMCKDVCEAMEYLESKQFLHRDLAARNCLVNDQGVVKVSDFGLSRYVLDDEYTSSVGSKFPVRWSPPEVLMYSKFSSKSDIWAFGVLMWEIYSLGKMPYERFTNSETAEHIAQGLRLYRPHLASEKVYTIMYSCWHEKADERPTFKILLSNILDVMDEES

Turning to `Cc1cc(-c2n[nH]c3ncc(-c4ccc(N5CCN(CCc6ccc(C7CCC(=O)NC7=O)cc6)CC5)cn4)cc23)ccc1CNC(=O)c1noc(C(C)(C)C)n1` (stereo not drawn) [Example 103, 5-(tert-butyl)-N-(4-(5-(5-(4-(4-(2,6-dioxopiperidin-3-yl)phenethyl)piperazin-1-yl)pyridin-2-yl)-1H-pyrazolo[3,4-b]pyridin-3-yl)-2-methylbenzyl)-1,2,4-oxadiazole-3-carboxamide], the DC50 came to 1.31 nM. That is a single-digit nanomolar value.
`Cc1cc(-c2n[nH]c3ncc(-c4ccc(N5CCN(CCC6CCN(c7ccc(N8CCC(=O)NC8=O)c(Cl)c7)CC6)CC5)cc4)cc23)ccc1[C@@H](C)NC(=O)c1ccc(C(C)(C)O)cc1F` [Example 104, (R)—N-(1-(4-(5-(4-(4-(2-(1-(3-chloro-4-(2,4-dioxotetrahydropyrimidin-1(2H)-yl)phenyl)piperidin-4-yl)ethyl)piperazin-1-yl)phenyl)-1H-pyrazolo[3,4-b]pyridin-3-yl)-2-methylphenyl)ethyl)-2-fluoro-4-(2-hydroxypropan-2-yl)benzamide] had a DC50 above 2000 nM.
The value for `Cc1cc(-c2n[nH]c3ncc(-c4ccc(C5CCN(CC6CCN(c7ccc(N8CCC(=O)NC8=O)c(C)c7)CC6)CC5)nc4)cc23)ccc1CNC(=O)c1nc(C(C)(C)C)no1` [Example 105, 3-(tert-butyl)-N-(4-(5-(6-(1-((1-(4-(2,4-dioxotetrahydropyrimidin-1(2H)-yl)-3-methylphenyl)piperidin-4-yl)methyl)piperidin-4-yl)pyridin-3-yl)-1H-pyrazolo[3,4-b]pyridin-3-yl)-2-methylbenzyl)-1,2,4-oxadiazole-5-carboxamide] was 3.55 nM.
To `Cc1cc(-c2n[nH]c3ncc(-c4ccc(N5CCN(CCc6ccc(C7CCC(=O)NC7=O)cc6)CC5)cc4)cc23)ccc1CNC(=O)c1noc(C(C)(C)C)n1` (stereo not drawn) [Example 107, 5-(tert-butyl)-N-(4-(5-(4-(4-(4-(2,6-dioxopiperidin-3-yl)phenethyl)piperazin-1-yl)phenyl)-1H-pyrazolo[3,4-b]pyridin-3-yl)-2-methylbenzyl)-1,2,4-oxadiazole-3-carboxamide] belongs 1.89 nM; to `Cc1cc(-c2n[nH]c3ncc(-c4ccc(N5CCN(CCc6ccc(C7CCC(=O)NC7=O)cc6)CC5)cc4)cc23)ccc1CNC(=O)c1cn(C(C)(C)C)nn1` (stereo not drawn) [Example 108, 1-(tert-butyl)-N-(4-(5-(4-(4-(4-(2,6-dioxopiperidin-3-yl)phenethyl)piperazin-1-yl)phenyl)-1H-pyrazolo[3,4-b]pyridin-3-yl)-2-methylbenzyl)-1H-1,2,3-triazole-4-carboxamide], 4.13 nM.
To `Cc1cc(-c2n[nH]c3ncc(-c4ccc(N5CCN(CC6CCN(c7ccc(N8CCC(=O)NC8=O)cc7)CC6)CC5)cc4)cc23)ccc1[C@@H](C)NC(=O)c1noc(C2(C)CC2)n1` [Example 109, (R)—N-(1-(4-(5-(4-(4-((1-(4-(2,4-dioxotetrahydropyrimidin-1(2H)-yl)phenyl)piperidin-4-yl)methyl)piperazin-1-yl)phenyl)-1H-pyrazolo[3,4-b]pyridin-3-yl)-2-methylphenyl)ethyl)-5-(1-methylcyclopropyl)-1,2,4-oxadiazole-3-carboxamide] belongs 13.3 nM; to `Cc1cc(-c2n[nH]c3ncc(-c4ccc(N5CCN(CCc6ccc([C@H]7CCC(=O)NC7=O)cc6)CC5)cc4)cc23)ccc1[C@@H](C)NC(=O)c1noc(C(C)(C)C)n1` [Example 111, 5-(tert-butyl)-N—((R)-1-(4-(5-(4-(4-(4-((R)-2,6-dioxopiperidin-3-yl)phenethyl)piperazin-1-yl)phenyl)-1H-pyrazolo[3,4-b]pyridin-3-yl)-2-methylphenyl)ethyl)-1,2,4-oxadiazole-3-carboxamide], 4.93 nM.
`Cc1cc(-c2n[nH]c3ncc(-c4ccc(N5CCN(CCc6ccc([C@@H]7CCC(=O)NC7=O)cc6)CC5)cc4)cc23)ccc1[C@@H](C)NC(=O)c1noc(C(C)(C)C)n1` [Example 112, 5-(tert-butyl)-N—((R)-1-(4-(5-(4-(4-(4-((S)-2,6-dioxopiperidin-3-yl)phenethyl)piperazin-1-yl)phenyl)-1H-pyrazolo[3,4-b]pyridin-3-yl)-2-methylphenyl)ethyl)-1,2,4-oxadiazole-3-carboxamide] yielded a DC50 of 1.79 nM.
To `Cc1cc(-c2n[nH]c3ncc(-c4ccc(N5CCN(CCc6ccc([C@H]7CCC(=O)NC7=O)c(F)c6)CC5)cc4)cc23)ccc1[C@@H](C)NC(=O)c1noc(C(C)(C)C)n1` [Example 113, 5-(tert-butyl)-N—((R)-1-(4-(5-(4-(4-(4-((R)-2,6-dioxopiperidin-3-yl)-3-fluorophenethyl)piperazin-1-yl)phenyl)-1H-pyrazolo[3,4-b]pyridin-3-yl)-2-methylphenyl)ethyl)-1,2,4-oxadiazole-3-carboxamide] belongs 17 nM; to `Cc1cc(-c2n[nH]c3ncc(-c4ccc(N5CCN(CCc6ccc([C@@H]7CCC(=O)NC7=O)c(F)c6)CC5)cc4)cc23)ccc1[C@@H](C)NC(=O)c1noc(C(C)(C)C)n1` [Example 114, 5-(tert-butyl)-N—((R)-1-(4-(5-(4-(4-(4-((S)-2,6-dioxopiperidin-3-yl)-3-fluorophenethyl)piperazin-1-yl)phenyl)-1H-pyrazolo[3,4-b]pyridin-3-yl)-2-methylphenyl)ethyl)-1,2,4-oxadiazole-3-carboxamide], 1.56 nM; to `Cc1cc(-c2n[nH]c3ncc(-c4ccc(N5CCN(CC6CCN(c7ccc(N8CCC(=O)NC8=O)c(Cl)c7)CC6)CC5)cc4)cc23)ccc1[C@@H](C)NC(=O)c1noc(C(C)(C)C)n1` [Example 115, (R)-5-(tert-butyl)-N-(1-(4-(5-(4-(4-((1-(3-chloro-4-(2,4-dioxotetrahydropyrimidin-1(2H)-yl)phenyl)piperidin-4-yl)methyl)piperazin-1-yl)phenyl)-1H-pyrazolo[3,4-b]pyridin-3-yl)-2-methylphenyl)ethyl)-1,2,4-oxadiazole-3-carboxamide], 4.87 nM.
To `Cc1cc(-c2n[nH]c3ncc(-c4ccc(N5CCN(CCc6ccc(C7CCC(=O)NC7=O)cc6)CC5)cn4)cc23)ccc1[C@@H](C)NC(=O)c1noc(C(C)(C)C)n1` (stereo partly drawn) [Example 116, 5-(tert-butyl)-N-((1R)-1-(4-(5-(5-(4-(4-(2,6-dioxopiperidin-3-yl)phenethyl)piperazin-1-yl)pyridin-2-yl)-1H-pyrazolo[3,4-b]pyridin-3-yl)-2-methylphenyl)ethyl)-1,2,4-oxadiazole-3-carboxamide] belongs 1.05 nM; to `Cc1cc(-c2n[nH]c3ncc(-c4ccc(C5CCN(CCc6ccc(C7CCC(=O)NC7=O)cc6)CC5)nc4)cc23)ccc1[C@@H](C)NC(=O)c1noc(C(C)(C)C)n1` (stereo partly drawn) [Example 117, 5-(tert-butyl)-N-((1R)-1-(4-(5-(6-(1-(4-(2,6-dioxopiperidin-3-yl)phenethyl)piperidin-4-yl)pyridin-3-yl)-1H-pyrazolo[3,4-b]pyridin-3-yl)-2-methylphenyl)ethyl)-1,2,4-oxadiazole-3-carboxamide], 3.5 nM.
To `COc1cc(OCCCN2CCN(c3ccc(-c4cnc5[nH]nc(-c6ccc([C@@H](C)NC(=O)c7nc(C(C)(C)C)no7)c(C)c6)c5c4)cc3)CC2)ccc1N1CCC(=O)NC1=O` [Example 118, (R)-3-(tert-butyl)-N-(1-(4-(5-(4-(4-(3-(4-(2,4-dioxotetrahydropyrimidin-1(2H)-yl)-3-methoxyphenoxy)propyl)piperazin-1-yl)phenyl)-1H-pyrazolo[3,4-b]pyridin-3-yl)-2-methylphenyl)ethyl)-1,2,4-oxadiazole-5-carboxamide] belongs 8.07 nM; to `Cc1cc(-c2n[nH]c3ncc(-c4ccc(N5CCN(CCc6ccc(N7CCC(=O)NC7=O)c(C)c6)CC5)cc4)cc23)ccc1[C@@H](C)NC(=O)c1noc(C(C)(C)C)n1` [Example 119, (R)-5-(tert-butyl)-N-(1-(4-(5-(4-(4-(4-(2,4-dioxotetrahydropyrimidin-1(2H)-yl)-3-methylphenethyl)piperazin-1-yl)phenyl)-1H-pyrazolo[3,4-b]pyridin-3-yl)-2-methylphenyl)ethyl)-1,2,4-oxadiazole-3-carboxamide], 2.12 nM; to `COc1cc(-c2cnc3[nH]nc(-c4ccc([C@@H](C)NC(=O)c5noc(C(C)(C)C)n5)c(C)c4)c3c2)ccc1N1CCN(CC2CCN(c3ccc(N4CCC(=O)NC4=O)cc3)CC2)CC1` [Example 120, (R)-5-(tert-butyl)-N-(1-(4-(5-(4-(4-((1-(4-(2,4-dioxotetrahydropyrimidin-1(2H)-yl)phenyl)piperidin-4-yl)methyl)piperazin-1-yl)-3-methoxyphenyl)-1H-pyrazolo[3,4-b]pyridin-3-yl)-2-methylphenyl)ethyl)-1,2,4-oxadiazole-3-carboxamide], 5.82 nM.
Take `CC(C)(C)c1nc(C(=O)NCc2ccc(-c3n[nH]c4ncc(-c5ccc(N6CCN(CC7CCN(c8ccc(N9CCC(=O)NC9=O)cc8)CC7)CC6)cc5)cc34)cc2CO)no1` [Example 121, 5-(tert-butyl)-N-(4-(5-(4-(4-((1-(4-(2,4-dioxotetrahydropyrimidin-1(2H)-yl)phenyl)piperidin-4-yl)methyl)piperazin-1-yl)phenyl)-1H-pyrazolo[3,4-b]pyridin-3-yl)-2-(hydroxymethyl)benzyl)-1,2,4-oxadiazole-3-carboxamide]: the DC50 was 2.39 nM.
The value for `Cc1cc(-c2n[nH]c3ncc(-c4ccc(N5CCN(CCc6ccc(N7CCC(=O)NC7=O)cc6)CC5)cn4)cc23)ccc1[C@@H](C)NC(=O)c1noc(C(C)(C)C)n1` [Example 122, (R)-5-(tert-butyl)-N-(1-(4-(5-(5-(4-(4-(2,4-dioxotetrahydropyrimidin-1(2H)-yl)phenethyl)piperazin-1-yl)pyridin-2-yl)-1H-pyrazolo[3,4-b]pyridin-3-yl)-2-methylphenyl)ethyl)-1,2,4-oxadiazole-3-carboxamide] was 2.22 nM.
